From publication PMC10003107, “Selectivity of Hydroxamate- and Difluoromethyloxadiazole-Based Inhibitors of Histone Deacetylase 6 In Vitro and in Cells” (International Journal of Molecular Sciences, 2023) come the findings set out here.

For series [1], the target named is T1, HDAC10 (Homo sapiens, UniProt Q969S8).
T1 construct: HDAC10 1 – 667 Open Biosystems; Strep-FLAG-HALO (N); made in house; host or cells: HEK293/T17
T1 sequence (Q969S8 1-667): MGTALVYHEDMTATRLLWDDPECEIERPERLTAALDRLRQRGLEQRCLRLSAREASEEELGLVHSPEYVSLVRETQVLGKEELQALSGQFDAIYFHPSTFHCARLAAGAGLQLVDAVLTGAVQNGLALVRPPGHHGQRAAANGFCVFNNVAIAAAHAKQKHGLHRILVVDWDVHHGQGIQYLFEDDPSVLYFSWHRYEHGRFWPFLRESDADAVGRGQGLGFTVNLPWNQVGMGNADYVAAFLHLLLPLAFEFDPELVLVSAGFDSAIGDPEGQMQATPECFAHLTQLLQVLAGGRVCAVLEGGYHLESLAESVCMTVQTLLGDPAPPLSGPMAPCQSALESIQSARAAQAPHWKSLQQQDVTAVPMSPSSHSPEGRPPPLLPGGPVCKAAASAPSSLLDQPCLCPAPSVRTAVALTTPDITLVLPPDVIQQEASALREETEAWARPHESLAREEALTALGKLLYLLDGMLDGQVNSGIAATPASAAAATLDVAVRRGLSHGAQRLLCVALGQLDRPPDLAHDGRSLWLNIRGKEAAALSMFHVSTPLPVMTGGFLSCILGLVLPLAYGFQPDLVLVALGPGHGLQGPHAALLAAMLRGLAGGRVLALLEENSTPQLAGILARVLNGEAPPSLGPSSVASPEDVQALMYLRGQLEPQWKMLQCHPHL
The series is described as follows: In vitro deacetylation assay, HDAC10 (fluorescein-labeled N8-acetylspermidine, RP-HPLC). The series is classed as biochemical.

The nature of series [2]: MTT viability assay. The note with it: human, RPMI-8226 lymphoblasts, RPMI-8226 cells, read-out: EC50 cytotoxicity (MTT viability). The series is classed as cell-based. The protocol:
(§1) RPMI-8226 lymphoblasts (ATTC #CCL-155) were used to assess the cytotoxicity of tested compounds. […] Dilution series of tested inhibitors were prepared as 10x stock solutions in PBS and 10 μL was added to cells and incubated under a 5% CO2 atmosphere at 37 °C, for 2 days. Following incubation, 10 μL of MTT reagent (3-(4,5-dimethylthiazol-2-yl)-2,5-diphenyltetrazolium bromide, 5 mg/mL in PBS, Sigma Aldrich) was added to each well and incubated for 90 min, 37 °C, 5% CO2. […]
On the technique in general: Formazan colour is commonly taken as a measure of viable cells.

Series [3] addresses T2, HDAC6 (Homo sapiens, UniProt Q9UBN7).
T2 construct: HDAC6 2-1215 Open Biosystems; Strep-FLAG-HALO (N); made in house; host or cells: HEK293/T17
T2 sequence (Q9UBN7 2-1215): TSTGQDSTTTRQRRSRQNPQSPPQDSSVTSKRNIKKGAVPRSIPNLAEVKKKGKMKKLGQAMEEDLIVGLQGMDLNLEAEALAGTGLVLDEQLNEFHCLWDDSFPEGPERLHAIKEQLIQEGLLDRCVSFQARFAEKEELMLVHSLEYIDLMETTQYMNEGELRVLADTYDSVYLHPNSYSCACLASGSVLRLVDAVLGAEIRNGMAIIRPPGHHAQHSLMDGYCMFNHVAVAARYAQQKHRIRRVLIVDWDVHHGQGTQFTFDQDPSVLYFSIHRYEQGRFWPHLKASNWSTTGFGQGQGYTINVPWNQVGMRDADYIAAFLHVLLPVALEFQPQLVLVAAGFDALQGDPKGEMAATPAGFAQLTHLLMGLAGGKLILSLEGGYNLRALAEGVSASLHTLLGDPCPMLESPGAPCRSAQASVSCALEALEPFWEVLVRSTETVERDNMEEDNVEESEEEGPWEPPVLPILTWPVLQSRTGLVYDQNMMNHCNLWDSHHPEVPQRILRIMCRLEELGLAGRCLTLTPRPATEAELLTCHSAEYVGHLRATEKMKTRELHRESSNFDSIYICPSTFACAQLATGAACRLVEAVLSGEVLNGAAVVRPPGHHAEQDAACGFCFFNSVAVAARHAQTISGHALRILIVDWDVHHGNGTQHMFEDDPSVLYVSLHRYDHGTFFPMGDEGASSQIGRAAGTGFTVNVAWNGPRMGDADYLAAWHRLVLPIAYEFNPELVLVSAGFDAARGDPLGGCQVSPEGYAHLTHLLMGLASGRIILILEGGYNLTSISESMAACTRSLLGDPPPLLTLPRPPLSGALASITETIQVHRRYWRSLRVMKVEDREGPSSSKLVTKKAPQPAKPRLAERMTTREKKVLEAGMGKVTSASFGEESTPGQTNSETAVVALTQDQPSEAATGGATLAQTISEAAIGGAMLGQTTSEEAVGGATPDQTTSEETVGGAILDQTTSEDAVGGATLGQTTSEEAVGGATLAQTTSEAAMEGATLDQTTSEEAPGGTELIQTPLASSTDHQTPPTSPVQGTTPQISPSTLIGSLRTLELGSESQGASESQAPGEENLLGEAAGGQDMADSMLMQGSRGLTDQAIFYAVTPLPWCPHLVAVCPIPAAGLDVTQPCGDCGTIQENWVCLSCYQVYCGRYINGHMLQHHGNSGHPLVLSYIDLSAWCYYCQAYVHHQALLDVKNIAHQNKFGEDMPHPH
In words: In vitro deacetylation assay, HDAC6 (GAK substrate). It is filed as biochemical. The note with it: purified human HDAC6, Ac-GAK-Ac-AMC (GAK) substrate 10 µM.

Series [4] has as its target T3, HDAC1 (Homo sapiens, UniProt Q13547).
T3 construct: HDAC1 1-482 Addgene; Strep-FLAG-HALO (N); made in house; host or cells: HEK293/T17
In words: In vitro deacetylation assay, HDAC1 (RHKK substrate). It is filed as biochemical. The following applies: for IC50: purified human HDAC1, RHK[AcK]-AMC (RHKK) substrate.

For series [5], the target named is T3, HDAC1. In words: In vitro deacetylation assay, HDAC1 (GAK substrate). It is filed as biochemical. The following applies: for IC50: purified human HDAC1, GAK substrate 10 µM.
For series [6], the system named is tubulin acetylation. The series is described as follows: Tubulin acetylation in RPMI-8226 cells by quantitative Western blotting. It is filed as cell-based. For orientation: In western blotting, separated proteins are transferred to a membrane and probed.
The test system of series [7] is histone H3 acetylation. In words: Histone H3 (K9/K14) acetylation in RPMI-8226 cells by Western blotting. It is filed as cell-based. The note with it: 6 h, Western blot.
In series [8] the test system is RPMI-8226 lymphoblasts. In words: MTT viability assay. The series is classed as cell-based. The note with it: RPMI-8226 cells, 48 h; for EC50: read-out: EC50 cytotoxicity (MTT viability). The protocol: as §1
Series [9] addresses HDAC1-nanoLuc (Homo sapiens, UniProt Q13547). The series is described as follows: nanoBRET target engagement assay, HDAC1. The series is classed as cell-based. The following applies: HEK293T/17 cells stably expressing HDAC1-nanoLuc, 2 h. (In general: In BRET a luciferase serves as donor, and the signal depends on an acceptor being close.)
Setting [10] is: Homo sapiens, RPMI-8226, 6 h, read-out: IC50 tubulin deacetylation (relative tubulin acetylation), RPMI-8226 cells, 6 h, Western blot; called EC50 in text.

Read-outs that look alike come from different tables or passages of the source.

T3 sequence (Q13547 whole entry): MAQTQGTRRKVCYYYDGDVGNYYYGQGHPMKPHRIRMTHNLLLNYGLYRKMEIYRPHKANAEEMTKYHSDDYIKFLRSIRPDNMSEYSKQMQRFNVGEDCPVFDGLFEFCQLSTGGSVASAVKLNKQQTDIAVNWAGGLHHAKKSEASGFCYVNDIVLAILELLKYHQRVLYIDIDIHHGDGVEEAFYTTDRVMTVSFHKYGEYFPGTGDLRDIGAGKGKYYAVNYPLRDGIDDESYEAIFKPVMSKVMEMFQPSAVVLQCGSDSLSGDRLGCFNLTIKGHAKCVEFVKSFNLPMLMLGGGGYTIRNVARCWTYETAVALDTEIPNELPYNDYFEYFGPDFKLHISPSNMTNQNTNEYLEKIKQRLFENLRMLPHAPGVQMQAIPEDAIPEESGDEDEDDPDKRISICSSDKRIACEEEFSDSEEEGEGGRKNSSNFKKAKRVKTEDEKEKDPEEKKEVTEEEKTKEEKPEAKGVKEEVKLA
Chain of HDAC1-nanoLuc (Q13547 whole entry): as above

By EC50 is commonly meant the concentration giving half of the maximal effect. Turning to `CS(=O)(=O)N(Cc1ccc(C(=O)NO)cn1)c1cccc(Cl)c1` [compound 6, 6-((N-(3-Chlorophenyl)methylsulfonamido)methyl)-N-hydroxynicotinamide], the IC50 in [1] (purified human HDAC10, read-out: IC50 HDAC10) worked out at 68.3 nM; in series [3], 0.35 nM; in series [4], 281 nM; in series [5], 49.2 nM. Also, the “SI (HD6/HD10)” value in series [1] (ratio of IC50 HDAC10 divided by IC50 HDAC6) came to 195. In [2], the EC50 at 48 h turned out to be 998 nM. Besides, in series [4] (ratio of IC50 HDAC1 (RHKK) divided by IC50 HDAC6), the “SI (HD6/HD1) RHKK” value is on record as 803. The “SI (HD6/HD1) GAK, in vitro” value in series [5] (ratio of IC50 HDAC1 (GAK) divided by IC50 HDAC6) is 141.

In the case of `CC(/C=C/C(=O)NO)=C\[C@@H](C)C(=O)c1ccc(N(C)C)cc1` [TSA, Trichostatin A], the IC50 in series [6] (Homo sapiens, RPMI-8226, 6 h, read-out: IC50 tubulin deacetylation (relative tubulin acetylation)) came to 136 nM; in series [6] (Homo sapiens, RPMI-8226, 6 h, read-out: potency to inhibit tubulin deacetylation), 136 nM; in series [6] (read-out: IC50 tubulin deacetylation (relative tubulin acetylation)), 140 nM. The “effect on histone H3 (K9/K14) acetylation, class I HDAC inhibition” value in series [7] is on record as “the most potent class I HDAC inhibitors”. Also, the EC50 in series [8] stood at 240 nM. The EC50 at 48 h in [2] was 237 nM.

`O=C(CCCCCCNC(=O)c1cnc(N(c2ccccc2)c2ccccc2)nc1)NO` [ACY-1215, rocilinostat]: the IC50 came to 18.2 nM in series [1] and 619 nM in series [6] (setting [10]). In addition, the “effect on histone H3 (K9/K14) acetylation, class I HDAC inhibition” value in [7] is given as “the most potent class I HDAC inhibitors”. Besides, in [8], the EC50 is 2900 nM. Besides, the EC50 at 48 h in [2] was 2890 nM.

With `CN1CCc2c(c3ccccc3n2Cc2ccc(C(=O)NO)cc2)C1` [Tub A, Tubastatin A], in [6] (Homo sapiens, RPMI-8226, 6 h; read-out: IC50 tubulin deacetylation (relative tubulin acetylation)), the IC50 was determined as 985 nM. In addition, the “effect on cell viability” value in series [8] (MTT) is listed as “less pronounced effects on cell viability at high inhibitor concentrations”. Also, in series [2], the EC50 at 48 h was 21600 nM.

Consider `CCCCN(Cc1ccc(C(=O)NO)cc1)C(=O)Nc1ccccc1` [Next A, Nexturastat A], for which the IC50 in series [6] (setting [10]) worked out at 249 nM. In addition, the EC50 in [8] is 2800 nM. Also, in series [2], the EC50 at 48 h was determined as 2810 nM.

On to `O=C(CCCCCCC(=O)Nc1ccc([C@H]2O[C@@H](CSc3nc(-c4ccccc4)c(-c4ccccc4)o3)C[C@@H](c3ccc(CO)cc3)O2)cc1)NO` [Tubacin], for which the IC50 worked out at 1710 nM in [6] (setting [10]); 1700 nM in [6] (read-out: IC50 tubulin deacetylation (relative tubulin acetylation); RPMI-8226 cells, 6 h, Western blot; called EC50 in text); 15100 nM in series [4]; 102 nM in series [5]. Moreover, the EC50 in series [8] came out at 6500 nM; in series [5] (Figure 2C, in vitro data (GAK) in μM), 0.1 µM; in series [9] it was 13200 nM. For the same molecule, the EC50 at 48 h in series [2] came to 6510 nM.
